These results are taken from US7297714B2, “Inhibitors of cathepsin S” (IRM LLC, priority 2003, dated 2007).

Assay type in all cases: biochemical
For one assay, the target named is Cathepsin S (Homo sapiens, UniProt P25774). As to the kind of experiment: Cathepsin S inhibition assay (fluorogenic peptide substrate). The conditions noted are these: Cathepsin S inhibition constant; pH5.5; read-out: Ki Cat. S. The text has this:
“Inhibition constant”, Ki, is the dissociation constant of the enzyme-inhibitor complex, or the reciprocal of the binding affinity of the inhibitor to the enzyme. For classical inhibition the value of Ki is much greater than the enzyme concentration and the Ki can be measured by monitoring the rate of reaction for a competitive substrate at multiple inhibitor concentrations. The inhibited rates are then fit by nonlinear regression to the following equation: […]
The assumption being made for the classical inhibition described above is that the free inhibitor concentration is equal to the total inhibitor concentration. For inhibitors that have Ki's that are approximately equal to the enzyme concentration [E], the assumption that the free inhibitor concentration is equal to the total inhibitor concentration is no longer valid and an alternative equation has to be fit for determination of the apparent inhibition constant, Ki^app using described methods (Kuzmic, P., K. C. Elrod, et al., Anal Biochem 2000, 286(1), 45-50):
(§1) The optimal substrate for cathepsin S, acetyl-histidine-proline-valine-lysine-amino carbamoyl coumarin, was identified from screening a combinatorial library of fluorogenic peptide substrates (Harris, J. L., B. J. Backes, et al., Proc Natl Acad Sci U S A 2000, 97(14), 7754-9). Kinetic measurements are performed in a total reaction volume of 30 μl in 384-well microtiter plates. Cathepsin S, at a final concentration of 0.3-3 nM (active site), is incubated with the compounds at twelve varying concentrations in a buffer containing 100 mM NaAc (pH5.5), 1 mM EDTA, 100 mM NaCl, 0.01% Brij-35 for 20 minutes at room temperature. Control reactions in the absence of inhibitor are performed in replicates of 24. The reactions are initiated by adding the substrate, acetyl-histidine-proline-valine-lysine-amino carbamoyl coumarin, to a final concentration of 50 μM. The rate of substrate hydrolysis is measured by monitoring the increase in fluorescence at an excitation wavelength of 380 nm and an emission wavelength of 450 nm that results from cleavage of the aniline bond in the substrate by the enzyme. The apparent inhibition constants for the compounds are determined from the enzyme progress curves (Kuzmic, P., K. C. Elrod, et al., Anal Biochem 2000, 286(1), 45-50) and are then used to calculate the inhibition constants for competitive inhibitors.

For a further assay, the target named is T1, Cathepsin K (Homo sapiens, UniProt P43235).
T1 sequence (P43235 115-329): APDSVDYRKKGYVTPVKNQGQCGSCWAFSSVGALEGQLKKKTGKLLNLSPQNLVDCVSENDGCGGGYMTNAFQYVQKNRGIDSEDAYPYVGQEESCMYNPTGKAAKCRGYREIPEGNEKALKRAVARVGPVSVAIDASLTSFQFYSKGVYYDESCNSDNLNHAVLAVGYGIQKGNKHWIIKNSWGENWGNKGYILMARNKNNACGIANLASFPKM
As to the kind of experiment: Cathepsin K inhibition assay, selectivity for cathepsin S over cathepsin K. The note with it: ratio of cathepsin K inhibition constant to cathepsin S inhibition constant. Here is the method: as §1, with “cathepsin K, acetyl-lysine-histidine-proline-lysine-amino” for “cathepsin S, acetyl-histidine-proline-valine-lysine-amino”, “Sci USA” for “Sci U S A”, “Cathepsin K,” for “Cathepsin S,”, “of 3.5” for “of 0.3-3”, “substrate, acetyl-lysine-histidine-proline-lysine-amino” for “substrate, acetyl-histidine-proline-valine-lysine-amino”, “of 40” for “of 50”
(§2) Selectivity for cathepsin S in the presence of cathepsin isozymes was determined by the ratio of the cathepsin isozyme inhibition constant of a compound of the present invention to the cathepsin S inhibition constant of the same compound. Preferred compounds of the present invention selective for cathepsin S have ratios of greater than 10. More preferred compounds of the present invention selective for cathepsin S have ratios of greater than 100. Most preferred compounds of the present invention selective for cathepsin S have ratios of greater than 1000.

The next assay addresses Cathepsin L (Homo sapiens, UniProt P07711). Description: Cathepsin L inhibition assay, selectivity for cathepsin S over cathepsin L. The note with it: ratio of cathepsin L inhibition constant to cathepsin S inhibition constant. Here is the method:
The optimal substrate for cathepsin L, acetyl-histidine-lysine-phenylalanine-lysine-amino carbamoyl coumarin, was identified from screening a combinatorial library of fluorogenic peptide substrates (Harris, J. L., B. J. Backes, et al.; Proc Natl Acad Sci USA 2000, 97(14), 7754-9). Kinetic measurements are performed in a total reaction volume of 30 μl in 384-well microtiter plates. Cathepsin L, at a final concentration of 0.1 nM (active site), is incubated with the compounds at twelve varying concentrations in a buffer containing 100 mM NaAc (pH5.5), 1 mM EDTA, 100 mM NaCl, 0.01% Brij-35 for 20 minutes at room temperature. Control reactions in the absence of inhibitor are performed in replicates of 24. The reactions are initiated by adding the substrate, acetyl-histidine-lysine-phenylalanine-lysine-amino carbamoyl coumarin, to a final concentration of 20 μM. The rate of substrate hydrolysis is measured by monitoring the increase in fluorescence at an excitation wavelength of 380 nm and an emission wavelength of 450 nm that results from cleavage of the aniline bond in the substrate by the enzyme. The apparent inhibition constants for the compounds are determined from the enzyme progress curves (Kuzmic, P., K. C. Elrod, et al., Anal Biochem 2000, 286(1), 45-50) and are then used to calculate the inhibition constants for competitive inhibitors.
as §2

The next assay concerns the target Cathepsin B (Homo sapiens, UniProt P07858). As to the kind of experiment: Cathepsin B inhibition assay, selectivity for cathepsin S over cathepsin B. The conditions noted are these: ratio of cathepsin B inhibition constant to cathepsin S inhibition constant. The method, then:
as §1, with “cathepsin B,” for “cathepsin S,”, “Sci US” for “Sci U S”, “Cathepsin B,” for “Cathepsin S,”, “of 1.5” for “of 0.3-3”, “of 10” for “of 50”
as §2

By Ki is commonly meant the dissociation constant of the complex between target and ligand, obtained from inhibition or displacement.

Sequence of Cathepsin L (P07711 114-333, species assumed): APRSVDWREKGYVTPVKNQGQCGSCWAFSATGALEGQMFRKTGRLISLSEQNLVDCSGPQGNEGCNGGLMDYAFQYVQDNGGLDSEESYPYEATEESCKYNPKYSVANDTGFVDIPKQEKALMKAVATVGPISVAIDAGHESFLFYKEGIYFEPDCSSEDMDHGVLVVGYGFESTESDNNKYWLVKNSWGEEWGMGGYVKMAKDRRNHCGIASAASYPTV
Sequence of Cathepsin S (P25774 115-331, species assumed): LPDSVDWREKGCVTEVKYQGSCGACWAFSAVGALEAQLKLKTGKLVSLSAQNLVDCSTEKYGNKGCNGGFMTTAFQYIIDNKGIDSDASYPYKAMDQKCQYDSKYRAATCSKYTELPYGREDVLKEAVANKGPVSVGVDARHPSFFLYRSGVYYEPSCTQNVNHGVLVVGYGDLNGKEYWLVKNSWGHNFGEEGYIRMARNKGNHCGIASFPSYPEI

With `CCOC1OC(=O)C[C@@H]1NC(=O)[C@H](CC1CCCC1)NC(=O)c1ccc(-c2cccc(F)c2)o1` (stereo partly drawn) [Example 12, (3S)-[3-Cyclopentyl-(2S)-{[5-(3-fluoro-phenyl)-furan-2-carbonyl]-amino}propionylamino]-2-ethoxy-5-oxo-tetrahydrofuran], the Ki at Cathepsin S was below 0.1 µM. Besides, on Cathepsin K, the “Selectivity for Cat. S over Cat. K” value is listed as “+ (+, >10)”. Besides, the “Selectivity for Cat. S over Cat. L” value on Cathepsin L is on record as “++ (++, >100)”. In addition, on Cathepsin B, the “Selectivity for Cat. S over Cat. B” value is listed as “++ (++, >100)”.
Regarding `O=C1C[C@H](NC(=O)[C@H](CC2CCCC2)NC(=O)c2cccc(C(F)(F)F)c2)C(O)O1` (stereo partly drawn) [Example 24, (3S)-(3-Cyclopentyl-(2S)-(3-trifluoromethylphenyl-carbonylamino)-propionylamino)-4-oxo-butyric acid], the Ki on Cathepsin S was below 0.1 µM. Also, on Cathepsin K, the “Selectivity for Cat. S over Cat. K” value is listed as “++ (++, >100)”. Besides, on Cathepsin L, the “Selectivity for Cat. S over Cat. L” value is “+ (+, >10)”. Besides, the “Selectivity for Cat. S over Cat. B” value at Cathepsin B is recorded as “+++ (+++, >1000)”.
With `N#Cc1cccc(C(=O)N[C@@H](CC2CCCC2)C(=O)N[C@H]2CC(=O)OC2O)c1` (stereo partly drawn) [Example 18, (3S)-((2S)-(3-cyanophenyl-carbonylamino)-3-cyclopentyl-propionylamino)-4-oxo-butyric acid], the inhibition constant Ki on Cathepsin S is below 0.1 µM. Also, the “Selectivity for Cat. S over Cat. K” value at Cathepsin K was “++ (++, >100)”. Further, the “Selectivity for Cat. S over Cat. L” value on Cathepsin L is recorded as “+ (+, >10)”. Further, on Cathepsin B, the “Selectivity for Cat. S over Cat. B” value was “+++ (+++, >1000)”.
